# Like-named read-outs stand apart in the source and are kept apart here.
# Legend:
# Assay type in all cases: cell-based
# human T cells = assay: ConA-stimulated T lymphocyte Th-1 cytokine (IFN-γ) release, ELISA; details: for inhibition at 0.0005 µM / inhibition at 0.00125 µM / inhibition at 0.0025 µM / inhibition at 0.005 µM / inhibition at 0.01 µM / inhibition at 0.02 µM: Homo sapiens, T-cell, 18 h, ConA 2 μg/mL, approx. 18 hr, read-out: Inhibition (percent) of IFN-γ release; for inhibition at 0.0005 µM: Nileprost 0.5 nM; for inhibition at 0.00125 µM: Nileprost 1.25 nM; for inhibition at 0.0025 µM: Nileprost 2.5 nM; for inhibition at 0.005 µM: Nileprost 5 nM; for inhibition at 0.01 µM: Nileprost 10 nM; for inhibition at 0.02 µM: Nileprost 20 nM
# Text: The activation of a human T lymphocyte by an antigen-presenting cell and antigen through the T cell receptor is mimicked in experimental conditions by the lectin Concanavilin A (ConA). It is known that ConA binds to the T cell receptor and stimulates the cell to release various cytokines. The binding of Nileprost to the EP receptor inhibits various cytokines release. One of the Th-1 released cytokines is IFN-γ. The biochemistry and biological activities of IFN-γ have been extensively reviewed in the literature.
# Human IFN-γ is a dimer of the expressed 143 amino acid protein. Enzyme-linked immunosorbant assays (ELISA) based on antibodies specific to IFN-γ are commercially available. Standards and samples are pipetted into the wells of a microplate. An antibody specific to human IFN-γ is added to the wells. A substrate is added to the wells and color develops in proportion to the amount of IFN-γ bound. The intensity of the color is measured.
# Peripheral blood lymphocytes were isolated from human donors using a Ficoll density gradient and residual erythrocytes were removed by selective lysis. The lymphocytes are cultured at approximately 10^6 cells per mL in RPMI1640 with 10% additional fetal bovine serum. The cell cultures were activated with 2 μg/mL of ConA as described above. Nileprost was added at various dilutions during the ConA activation. Cells were incubated for approximately 18 hr at 37° C. IFN-γ released during activation was measured by ELISA.
# human CD8 cells = assay: Anti-CD3/CD28-stimulated cytotoxic CD8+ lymphocyte cytokine release, multi-cytokine bead immunoassay; details: 1 μM Nileprost; for inhibition at 1 µM: Homo sapiens, Lymphocyte, Anti-CD3/CD28 stimulation, overnight
# Text: The activation of a human T lymphocyte by an antigen-presenting cell and antigen through the T cell receptor is mimicked in experimental conditions by the addition of antibodies to the CD3 subunit of the T cell receptor and antibodies to the CD28 costimulatory receptor. It is known that anti-CD3 anti-CD28 binding to T lymphocytes stimulates the cells to release various cytokines. Some of these cytokines are IL-2, IFN-γ and GM-CSF. The biochemistry and biological activities of these cytokines have been extensively reviewed in the literature. The binding of Nileprost to the EP receptor inhibits the release of various CD8+ cytokines.
# Multi-cytokine immunosorbant assays based on antibodies specific to human cytokines are commercially available. Standards and samples are pipetted into sample tubes. A monoclonal antibody specific for a cytokine is covalently linked to a fluorescent bead set, which captures the cytokine. A complementary biotinylated monoclonal cytokine antibody then completes the immunological sandwich and the reaction is detected with streptavidin-phycoerythrin.
# CD14-negative populations were isolated from four donors by Miltenyi CD14 beads. The four populations were allowed to rest at 5×10^6/mL in separate flasks overnight in RPMI 1640, 10% fetal bovine serum. Meanwhile, anti-CD3 antibody (OKT3, functional antibody, eBioscience) were bound to 10 cm plates at 5 μg/mL in sodium carbonate binding buffer at 4° C. The next day, the cells were mixed and 1×10^9 cells were taken for CD8 isolation using the Milenyi CD8 isolation kit (negative selection). The resulting 3.9×10^8 CD8 cells were resuspended in medium at 4×10^6/mL and added to the 10 cm CD3-bound plates. Soluble anti-CD28 (2-5 μg/mL) and 1 μM Nileprost or vehicle alone were added to the CD8 cells. Incubation was continued overnight and cytokines were detected as described above.
# [1] = system: Human monocyte derived dendritic cells; assay: LPS-stimulated monocyte-derived dendritic cell IL-12 release, ELISA; details: 1 μM of Nileprost; for inhibition at 1 µM: Homo sapiens, Dendritic cell, 18 h, 10 ng/mL LPS, approx. 18 hr, read-out: Inhibition (percent) of IL-12 release
# Text: Following stimulation through the toll-like receptors TLR, DCs express and release proinflammatory cytokines and chemokines and may induce activation and proliferation of naïve T cells. The binding of Nileprost to the EP receptor inhibits TLR4 ligand (LPS)-stimulated IL-12 release. Therefore, Nileprost skews the CD4 T cell differentiation to a Th-2 lineage.
# IL-12 is a 75 kDa glycoprotein heterodimer (p70) composed of two genetically unrelated subunits linked by a disulfide bond. Enzyme-linked immunosorbant assays based on antibodies specific to IL-12 p70 are commercially available. Standards and samples are pipetted into the wells of a microplate. An antibody specific to human IL-12 is added to the wells. A substrate is added to the wells and color develops in proportion to the amount of IL-12 bound. The intensity of the color is measured.
# Human monocyte-derived dendritic cells were isolated from human donors using a Ficoll density gradient and residual erythrocytes were removed by selective lysis. CD14 MicroBeads were used for separation of human cells based on the expression of the CD14 antigen. The dendritic cells were cultured at approximately 1.5×10^6 cells per mL in RPMI1640 with fetal bovine serum, 200 ng/mL GM-CSF (Leukine) and 10 ng/mL IL-4. The cells grew for a period of 3 days and then the media was changed. 10 ng/mL LPS was used to activate the cells. 1 μM of Nileprost and 1 µM of PGE2 were added during the LPS stimulation. Cells were incubated for approximately 18 hr at 37° C. IL-12 released during activation was measured by ELISA.
structure (smiles),measurement,setting,value
CCCCC(C)[C@H](O)/C=C/[C@@H]1[C@H]2C/C(=C(\C#N)CCCC(=O)O)O[C@H]2C[C@H]1O (stereo partly shown) [Nileprost],inhibition at 0.0005 µM,human T cells; Donor 1,17%
same,inhibition at 0.00125 µM,human T cells; Donor 1,23%
same,inhibition at 0.0025 µM,human T cells; Donor 1,45%
same,inhibition at 0.005 µM,human T cells; Donor 1,56%
same,inhibition at 0.01 µM,human T cells; Donor 1,50%
same,inhibition at 0.02 µM,human T cells; Donor 1,67%
same,inhibition at 0.0005 µM,human T cells; Donor 2,2%
same,inhibition at 0.00125 µM,human T cells; Donor 2,11%
same,inhibition at 0.0025 µM,human T cells; Donor 2,17%
same,inhibition at 0.005 µM,human T cells; Donor 2,35%
same,inhibition at 0.01 µM,human T cells; Donor 2,43%
same,inhibition at 0.02 µM,human T cells; Donor 2,41%
same,inhibition at 0.0005 µM,human T cells; Donor 3,26%
same,inhibition at 0.00125 µM,human T cells; Donor 3,36%
same,inhibition at 0.0025 µM,human T cells; Donor 3,43%
same,inhibition at 0.005 µM,human T cells; Donor 3,54%
same,inhibition at 0.01 µM,human T cells; Donor 3,64%
same,inhibition at 0.02 µM,human T cells; Donor 3,68%
same,inhibition at 0.0005 µM,human T cells; Donor 4,21%
same,inhibition at 0.00125 µM,human T cells; Donor 4,29%
same,inhibition at 0.0025 µM,human T cells; Donor 4,31%
same,inhibition at 0.005 µM,human T cells; Donor 4,48%
same,inhibition at 0.01 µM,human T cells; Donor 4,55%
same,inhibition at 0.02 µM,human T cells; Donor 4,56%
same,Inhibitory activity in T lymphocyte Th-1 cytokine release (in words),"human T cells; dose responsively, 0.5-20 nM",very high inhibitory activity
same,Inhibitory activity in cytotoxic CD8+ lymphocyte cytokine release (in words),human CD8 cells,very high inhibitory activity
same,inhibition at 1 µM,"human CD8 cells; Donor 1, read-out: Inhibition (percent) of GM-CSF release",77%
same,inhibition at 1 µM,"human CD8 cells; Donor 1, read-out: Inhibition (percent) of IFN-γ release",79%
same,inhibition at 1 µM,"human CD8 cells; Donor 1, read-out: Inhibition (percent) of IL-2 release",71%
same,inhibition at 1 µM,"human CD8 cells; Donor 2, read-out: Inhibition (percent) of GM-CSF release",65%
same,inhibition at 1 µM,"human CD8 cells; Donor 2, read-out: Inhibition (percent) of IFN-γ release",59%
same,inhibition at 1 µM,"human CD8 cells; Donor 2, read-out: Inhibition (percent) of IL-2 release",68%
same,inhibition at 1 µM,"human CD8 cells; Donor 3, read-out: Inhibition (percent) of GM-CSF release",87%
same,inhibition at 1 µM,"human CD8 cells; Donor 3, read-out: Inhibition (percent) of IFN-γ release",79%
same,inhibition at 1 µM,"human CD8 cells; Donor 3, read-out: Inhibition (percent) of IL-2 release",88%
same,inhibition at 1 µM,"human CD8 cells; Donor 4, read-out: Inhibition (percent) of GM-CSF release",61%
same,inhibition at 1 µM,"human CD8 cells; Donor 4, read-out: Inhibition (percent) of IFN-γ release",80%
same,inhibition at 1 µM,"human CD8 cells; Donor 4, read-out: Inhibition (percent) of IL-2 release",70%
same,Inhibitory activity in human monocyte-derived dendritic cell (DC) cytokine release (in words),[1],very high inhibitory activity
same,inhibition at 1 µM,[1]; Donor 1,84%
same,inhibition at 1 µM,[1]; Donor 2,51%
same,inhibition at 1 µM,[1]; Donor 3,69%
same,inhibition at 1 µM,[1]; Donor 4,66%

# Source: US20080021099A1, “5-Cyano-prostacyclin derivatives as agents for the treatment of autoimmune disease” (Bayer Schering Pharma Aktiengesellschaft, priority 2006, published 2008)
